Experimental data: a compilation of properties of binary mixtures (doi:10.1007/s10973-023-12194-1)

Test: xn = mol fraction of the nth substance listed
Conditions: 101.3 kPa

CC[NH3+].O=[N+]([O-])[O-] + O
x2 = 0.574
Conditions	viscosity [mPa·s]
283.15 K	8.965
288.15 K	6.679
293.15 K	6.018
298.15 K	5.487
313.15 K	4.258
318.15 K	3.893
323.15 K	3.622
333.15 K	3.173
338.15 K	3.007
348.15 K	1.807
353.15 K	1.695
358.15 K	1.589
363.15 K	1.492
368.15 K	1.434
373.15 K	1.343

CCCC[NH3+].O=[N+]([O-])[O-] + O
x2 = 0.435
Conditions	viscosity [mPa·s]
283.15 K	43.41
288.15 K	35.87
293.15 K	29.92
303.15 K	21.45
308.15 K	18.52
313.15 K	16.04
318.15 K	14.65
323.15 K	12.38
328.15 K	11.26
333.15 K	9.535
338.15 K	8.605
343.15 K	7.11
348.15 K	6.46
353.15 K	5.89
358.15 K	5.4
363.15 K	4.98
368.15 K	4.6
373.15 K	4.266
